US5780441A, “Sphingoglycolipid compounds and therapeutic uses thereof” (Kirin Beer Kabushiki Kaisha, priority 1993, dated 1998)

Columns and labels:
[1] = test system: P388 mouse leukemia cells; test: Life-span-prolonging (anti-tumor) effect on mice subcutaneously inoculated with P388 mouse leukemia cells; format: in vivo, mouse (CDF1 female); conditions: 0.1 mg/kg i.v. on days 1, 5 and 9; for Survival days ave. ± s. d.: all marked ** (p < 0.01); for T/C (%) / response vs control in vivo at 0.1 mg/kg: survival vs vehicle; for response vs control in vivo at 0.1 mg/kg: Mus musculus, P388, iv, read-out: T/C (%)
Experimental: i) Anti-tumor effect of the compound of the present invention on mice subcutaneously inoculated with P388 mouse leukemia cells.
Experiment was performed with CDF1 female mice (6 weeks) purchased from NIPPON SLC K.K., which were divided into groups consisting of 5 animals. […]. In this connection, lentinan and picibanil were administered intravenously on days 1, 3, 5, 7 and 9 after implantation, and sizofilan was administered subcutaneously on days 1 through 9. Statistical analysis was performed according to the Mann-Whiteney test.

[2] = test system: B16 mouse melanoma cells; test: Tumor growth inhibition in mice subcutaneously inoculated with B16 mouse melanoma cells; format: in vivo, mouse (BDF1 female); conditions: 0.1 mg/kg i.v. days 1, 5, 9; maximum during 20 days
Experimental: ii) Anti-tumor effect of the compound according to the present invention on mice subcutaneously inoculated with B16 mouse melanoma cells.
Experiment was performed with BDF1 female mice (6 weeks) purchased from NIPPON SLC K.K., which were divided into groups consisting of 6 animals. […]. The subcutaneous tumor volumes [(length×width×height)/2] were measured on days 8, 12, 16 and 20 after implantation to determine the tumor growth inhibiting rate (TGIR) of each sample. TGIR was calculated from the following formula: […]
wherein C: tumor volume in the control group, and
T: tumor volume in the sample adminitered groups.
In this connection, Compounds 1-6 and 7-9 were tested in the same time, respectively.

[3] = test system: mouse bone marrow cells; test: In vitro mouse bone marrow cell-proliferation-promoting effect (3H-TdR uptake); format: cell-based, mouse (BDF1 female); conditions: 4 days; for Uptake of 3H-TdR (% of control), bone marrow cells: 5760 min
Experimental: In vitro mouse bone marrow cell-proliferation-promoting effect of the present compound
Experiment was performed with BDF1 female mice (6 weeks old) purchased from NIPPON SLC K.K. Bone marrow cells were removed from the femoral bone of mice by the conventional manner, floated on 10% FCS RPMI 1640, layered over Lympholite M, and centrifuged to give a monocyte fraction. 1×10^6 cells/ml of the monocyte fraction was suspended in 10% FCS RPMI 1640. The cell suspension (100 μl/well) and a vehicle or sample (10 μl/well) which was prepared so as to have a final level shown in Table 2 were added into a wells of round-bottomed 96 well plate, and cultured under the condition of 5% CO2 at 37° C. for 4 days. 0.5 μCi/well of ^3 H-thymidine (^3 H-TdR) was added. After 6 hours, the cells were harvested, and the amount of ^3 H-TdR uptaken into nucleus was measured by a liquid scintillation counter. The ratio of the uptake of ^3 H-TdR in the sample group to that in the vehicle group was calculated and used as the activation rate for promoting in vitro mouse bone marrow cell growth.

[4] = test system: mouse splenic lymphocyte; test: In vitro mouse splenic lymphocyte-proliferation-stimulating effect (3H-TdR uptake); format: cell-based, mouse (BDF1 female); conditions: 2 days; for Uptake of 3H-TdR (% of control), splenic lymphocytes: 2880 min
Experimental: i) In vitro mouse splenic lymphocyte growth promoting effects of the present compounds
Experiment was performed with BDF1 female mice (6 weeks old) purchased from NIPPON SLC K.K. Spleens were removed from mice, and spleen cells were brayed with slide glasses and hemolized with NH4 Cl. 2×10^6cells/ml of the spleen cells which had been hemolized were suspended in 10% FCS RPMI 1640. The cell suspension (100 μl/well) and a vehicle or sample (10 μl/well) which was prepared so as to have a final level shown in Table 3 were added into wells of a round-bottomed 96 well plate, and cultured under the condition of 5% CO2 at 37° C. for 2 days. 0.5 μCi/well of ^3 H-thymidine (^3 H-TdR) was added. After 6 hours, the cells were harvested, and the amount of ^3 H-TdR uptaken into nucleus was measured by a liquid scintillation counter. The ratio (%) of the uptake of ^3 H-TdR in the sample group to that in the vehicle group was calculated and used as the in vitro mouse splenic lymphocyte-proliferation-stimulating rate.

[5] = test system: mixed lymphocyte culture reaction (spleen cells of C57BL/6 and BALB/C mice); test: Mixed lymphocyte culture reaction (MLR); format: cell-based, mouse (C57BL/6 stimulator, BALB/C responder); conditions: 42 hours; for MLR activating rate (%): 2520 min; for activity at 1 µg/mL / activity at 0.1 µg/mL: Mus musculus, Lymphocyte, read-out: MLR activating rate (%)
Experimental: ii) Mixed lymphocyte culture reaction (MLR) of the compounds of the present invention
Spleen cells were prepared from C57BL/6 mice and treated with 50 μg/ml of mitomycin C for 30 minutes. The treated cells were used as stimulator cells, and the spleen cells of BALB/C mice as responder cells. 2×10^6 cells/ml of the both spleen cells were suspended in 10% FCS RPMI1640 as a culture medium. The above-described cells (50 μl/well) and a sample (10 μl/well) were added into wells of a round-bottomed 96 well plate, and cultured under the condition of 5% CO2 at 37° C. for 42 hours. 0.5 μCi/well of ^3 H-thymidine (^3 H-TdR) was added. After 8 hours, the cells were harvested, and the amount of uptaken ^3 H-TdR was measured by a liquid scintillation counter to calculate the ratio (%) of the uptake of ^3 H-TdR in the sample group to that in the vehicle group as the MLR activating rate.

[6] = test system: lethally irradiated mice; test: Radioprotective effect: life-span prolongation of lethally irradiated mice; format: in vivo, mouse (BDF1 female); conditions: 0.1 mg/kg i.v. days 0, 4, 8, 9 Gy X-ray, groups of 10
Experimental: Life-span-prolonging effects of the present compounds on lethally irradiated mice.
Experiment was performed with BDF1 female mice (6 weeks old) purchased from NIPPON SLC K.K., which were divided into groups consisting of 10 animals. Mice were irradiated generally with 9 Gy of X-ray with an X-ray generating apparatus, Hitachi, MBR-1520R (radiation day: day 0). Samples at a dose of 0.1 mg/kg were administered into tail vein on days 0, 4 and 8 in order to observe the mortality of the animals for 40 days.
In the table, two experiments are separated by the broken line.

[7] = Mus musculus, Bone marrow cell, 96 h, 10^-1 μg/ml, read-out: Uptake of 3H-TdR (% of control), bone marrow cells
[8] = Mus musculus, Splenic lymphocyte, 48 h, 10^0 μg/ml, read-out: Uptake of 3H-TdR (% of control), splenic lymphocytes
[9] = Mus musculus, Splenic lymphocyte, 48 h, 10^-3 μg/ml, read-out: Uptake of 3H-TdR (% of control), splenic lymphocytes

| Compound | Survival days ave. ± s. d. [1] [days] | T/C (%) [1] [%] | Maximum tumor growth inhibiting rate, TGIR (%) [2] [%] | Uptake of 3H-TdR (% of control), bone marrow cells ([3]; 10^-1 μg/ml) | Uptake of 3H-TdR (% of control), bone marrow cells ([3]; 10^-2 μg/ml) | Uptake of 3H-TdR (% of control), splenic lymphocytes ([4]; 10^0 μg/ml) | Uptake of 3H-TdR (% of control), splenic lymphocytes ([4]; 10^-3 μg/ml) | MLR activating rate (%) ([5]; 1 × 10^0 μg/ml) | MLR activating rate (%) ([5]; 1 × 10^-1 μg/ml) | Number of surviving mice ([6]; day 10) [mice] | response vs control in vivo at 0.1 mg/kg [1] [%] | activity at 0.1 µg/mL [3, 7] [%] | activity at 1 µg/mL [4, 8] [%] | activity at 0.001 µg/mL [4, 9] [%] | activity at 1 µg/mL ([5]; 1 × 10^0 μg/ml) [%] | activity at 0.1 µg/mL ([5]; 1 × 10^-1 μg/ml) [%] | other results |
| --- | --- | --- | --- | --- | --- | --- | --- | --- | --- | --- | --- | --- | --- | --- | --- | --- | --- |
| CCCCCCCCCCCCCCCCCCCCCC[C@@H](O)C(=O)N[C@@H](CO[C@H]1O[C@H](CO)[C@H](O)[C@H](O[C@H]2O[C@H](CO)[C@H](O)[C@H](O)[C@H]2NC(C)=O)[C@H]1O[C@H]1O[C@H](CO)[C@@H](O)[C@H](O)[C@H]1O)[C@H](O)[C@H](O)CCCCCCCCCCCC(C)C [Compound 3, O-(N-acetyl-2-amino-2-deoxy-α-D-galactopyranosyl)-(1→3)-O-[α-D-glucopyranosyl-(1→2)]-O-α-D-galactopyranosyl-(1→1)-(2S,3S,4R)-2-amino-N-[(R)-2-hydroxytetracosanoyl]-16-methyl-1,3,4-heptadecanetriol] | 15.0 ± 0 | 117 | 66.8 | 314 % of control | 138 % of control | 815 % of control | 258 % of control | 210 | 138 | 10 | – | – | – | – | – | – | Uptake of 3H-TdR (% of control), splenic lymphocytes ([4]; 10^-1 μg/ml): 704 % of control; Uptake of 3H-TdR (% of control), splenic lymphocytes ([4]; 10^-2 μg/ml): 397 % of control; Number of surviving mice ([6]; day 15, 0.1 mg/kg): 6 mice; Number of surviving mice ([6]; day 20, 0.1 mg/kg): 5 mice; Number of surviving mice ([6]; day 25, 0.1 mg/kg): 5 mice; Number of surviving mice ([6]; day 30, 0.1 mg/kg): 5 mice; Number of surviving mice ([6]; day 35, 0.1 mg/kg): 5 mice; Number of surviving mice ([6]; day 40, 0.1 mg/kg): 5 mice |
| CCCCCCCCCCCCCCCCCCCCCC[C@@H](O)C(=O)N[C@@H](CO[C@H]1O[C@H](CO)[C@H](O)[C@H](O[C@H]2O[C@H](CO)[C@H](O)[C@H](O)[C@H]2NC(C)=O)[C@H]1O[C@H]1O[C@H](CO)[C@@H](O)[C@H](O)[C@H]1O)[C@H](O)[C@H](O)CCCCCCCCCCCC [Compound 1, O-(N-acetyl-2-amino-2-deoxy-α-D-galactopyranosyl)-(1→3)-O-[α-D-glucopyranosyl-(1→2)]-O-α-D-galactopyranosyl-(1→1)-(2S,3S,4R)-2-amino-N-[(R)-2-hydroxytetracosanoyl]-1,3,4-hexadecanetriol] | 15.3 ± 0.8 | – | – | – | – | – | – | – | – | 10 | 120 | 211 | 843 | 184 | 222 | 142 | activity at 0.01 µg/mL ([3]; Mus musculus, Bone marrow cell, 96 h, 10^-2 μg/ml, read-out: Uptake of 3H-TdR (% of control), bone marrow cells): 133%; activity at 0.1 µg/mL ([4]; Mus musculus, Splenic lymphocyte, 48 h, 10^-1 μg/ml, read-out: Uptake of 3H-TdR (% of control), splenic lymphocytes): 738%; activity at 0.01 µg/mL ([4]; Mus musculus, Splenic lymphocyte, 48 h, 10^-2 μg/ml, read-out: Uptake of 3H-TdR (% of control), splenic lymphocytes): 332%; Number of surviving mice ([6]; day 15): 9 mice; Number of surviving mice ([6]; day 20): 7 mice; Number of surviving mice ([6]; day 25): 6 mice; Number of surviving mice ([6]; day 30): 6 mice; Number of surviving mice ([6]; day 35): 6 mice; Number of surviving mice ([6]; day 40): 6 mice |
| CCCCCCCCCCCCCCCCCCCCCC[C@@H](O)C(=O)N[C@@H](CO[C@H]1O[C@H](CO)[C@H](O)[C@H](O[C@H]2O[C@H](CO)[C@H](O)[C@H](O)[C@H]2NC(C)=O)[C@H]1O[C@H]1O[C@H](CO)[C@@H](O)[C@H](O)[C@H]1O)[C@H](O)[C@H](O)CCCCCCCCCCCCCC [Compound 8, O-(N-acetyl-2-amino-2-deoxy-α-D-galactopyranosyl)-(1→3)-O-[α-D-glucopyranosyl-(1→2)]-O-α-D-galactopyranosyl-(1→1)-(2S,3S,4R)-2-amino-N-[(R)-2-hydroxytetracosanoyl]-1,3,4-octadecanetriol] | 16.0 ± 0.7 | 125 | 78.4 | 240 % of control | 167 % of control | 997 % of control | 609 % of control | 286 | 232 | – | – | – | – | – | – | – | – |
| CCCCCCCCCCCCCCCCCCCCCC[C@@H](O)C(=O)N[C@@H](CO[C@H]1O[C@H](CO)[C@H](O)[C@H](O[C@@H]2O[C@@H]([C@H](O)CO)[C@H](O)[C@H]2O)[C@H]1O)[C@H](O)[C@H](O)CCCCCCCCCCCCC(C)C [Compound 17, O-β-D-galactofuranosyl-(1→3)-O-α-D-galactopyranosyl-(1→1)-(2S,3S,4R)-2-amino-N-[(R)-2-hydroxytetracosanoyl]-17-methyl-1,3,4-octadecanetriol] | 14.8 ± 0.8 | – | – | – | – | – | – | – | – | – | 116 | 592 | 781 | 767 | 283 | 242 | – |
